# Measurements published in US20120088668A1, “THINNING AGENT” (TAMINCO, NAAMLOZE VENNOOTSCHAP, priority 2009, published 2012).
# What was measured:
# [1] = tested on: Chrysanthemum cv Herby Mixed; assay: Flower bud thinning, Chrysanthemum cv Herby Mixed: auxin/auxin precursor with or without acetaminophen; type: in vivo; conditions: for Mean Number of Buds/plant: auxins/precursors each at 10^−2 Molar solutions, AC at 3 g per hectare equivalent, applied 2 Dec. 2009 (first bud), measured 12 Jan. 2010 (flowering); for % Improvement over control ie (C) minus (A) or (B)/(C × 100): reduction of buds/plant against Control (C)
# Description: Cultural Details: plants were sown in a commercial seed compost and then “pricked out” into a professional grade all-purpose compost in 9 cm pots set out in a randomized block design. Normal daylight plus supplementary lighting to provide a minimum of 10 hours per day. Heating was given to a minimum of 60 degrees Fahrenheit during the day and 40 degrees F. at night.
# Sowing Date: 5 Oct. […] Application Date: 2 Dec. […] Measurement Date: 12 Jan. […] Measurement: Number of buds per plant.
# A number of auxins or auxin precursors were applied, each at 10^−2 Molar solutions. Addition of acetaminophen (AC) was at 3 g per hectare equivalent in each test.
# [2] = tested on: Chrysanthemum cv Herby Mixed; assay: Flower bud thinning, Chrysanthemum cv Herby Mixed: agrochemically acceptable additives with AN or AN + AC; type: in vivo; conditions: for Mean Number of Buds/plant: AN 1 g, AC 3 g actives per hectare in 250 litres water, additive per ha: Glucose 150 g, Succinic acid 50 g, Ascorbic acid 50 g, Corn oil 500 g, L-arginine 30 g, applied 4 Feb. 2010 (first bud), measured 12 Mar. 2010
# Description: Cultural Details: plants were sown in a commercial seed compost and then “pricked out” into a professional grade all-purpose compost in 9 cm pots set out in a randomized block design. Normal daylight plus supplementary lighting to provide a minimum of 10 hours per day. Heating was given to a minimum of 60 degrees Fahrenheit during the day and 40 degrees at night. Certain agrochemically acceptable additives, as examples (rates per ha provided in the Table below), were added to either anthranilic acid ([…], applied in 250 litres water per hectare, […]) or anthranilic acid plus acetaminophen (1 gram per litre and 3 gram per litre solution respectively, applied in 250 litres water per hectare, =1 g and 3 g actives total respectively per hectare).
# Sowing Date: 26 Oct. 2009, in plugs. Application Date: 4 Feb. 2010 (first bud). Measurement Date: 12 Mar. 2010 (flowering). Measurement: Number of buds per plant.
smiles,measurement,setting,value
Nc1ccccc1C(=O)[O-].[Na+] [Anthranilic Acid monosodium salt],Mean Number of Buds/plant,[1],2.3
same,% Improvement over control ie (C) minus (A) or (B)/(C × 100),[1],+14.8%
"CC(=O)Nc1ccc(O)cc1 [AC, N-(4-hydroxypheyl)acetamide, reference compound]",Mean Number of Buds/plant,[1],2.7
same,Mean Number of Buds/plant,[2],2.8
"Nc1ccccc1C(=O)O [Anthranilic acid, anthranilic acid]",Mean Number of Buds/plant,[1],2.2
same,% Improvement over control ie (C) minus (A) or (B)/(C × 100),[1],+18.5%
same,Mean Number of Buds/plant,[2],2.3
same,% Improvement over untreated,[2]; reduction of buds/plant against Untreated,+17.8%
N[C@@H](Cc1c[nH]c2ccccc12)C(=O)O [L-Tryptophan],Mean Number of Buds/plant,[1],2.4
same,% Improvement over control ie (C) minus (A) or (B)/(C × 100),[1],+11.1%
NCCc1c[nH]c2ccccc12 [Tryptamine],Mean Number of Buds/plant,[1],2.7
same,% Improvement over control ie (C) minus (A) or (B)/(C × 100),[1],+0.0%
Nc1c(O)cccc1C(=O)O [3-Hydroxyanthranilic acid],Mean Number of Buds/plant,[1],2.5
same,% Improvement over control ie (C) minus (A) or (B)/(C × 100),[1],+7.4%
COC(=O)c1ccccc1N [Anthranilic acid methyl ester],Mean Number of Buds/plant,[1],2.2
same,% Improvement over control ie (C) minus (A) or (B)/(C × 100),[1],+18.5%
CC(N)=O [Acetamide],Mean Number of Buds/plant,[1],2.3
same,% Improvement over control ie (C) minus (A) or (B)/(C × 100),[1],+14.8%
NC(=O)Cc1c[nH]c2ccccc12 [Indole-3-acetamide],Mean Number of Buds/plant,[1],2.3
same,% Improvement over control ie (C) minus (A) or (B)/(C × 100),[1],+14.8%
